In patent US20240327380A1, “BTK INHIBITORS” (BIOGEN MA INC., priority 2020, published 2024):

Target: T1, active BTK enzyme (Upstate 14-552) (Homo sapiens, UniProt Q06187)
T1 construct: purchased Upstate 14-552
Test: In Vitro BTK Kinase Assay: Btk-PolyGAT-LS Assay
Assay type: biochemical
Conditions: ATP 10 μM, polyGAT 100 nM, BTK 0.25 nM, 30 minutes, TRF readout
Experimental: In Vitro BTK Kinase Assay: Btk-PolyGAT-LS Assay The purpose of the BTK in vitro assay is to determine compound potency against BTK through the measurement of IC50. Compound inhibition is measured after monitoring the amount of phosphorylation of a fluorescein-labeled polyGAT peptide (Invitrogen PV3611) in the presence of active BTK enzyme (Upstate 14-552), ATP, and inhibitor. The BTK kinase reaction was done in a black 96 well plate (costar 3694). For a typical assay, a 24 μL aliquot of a ATP/peptide master mix (final concentration; ATP 10 μM, polyGAT 100 nM) in kinase buffer (10 mM Tris-HCl pH 7.5, 10 mM MgCl2, 200 μM […], 5 mM DTT, 0.01% Triton X-100, and 0.2 mg/ml casein) is added to each well. Next, […] of a 4-fold, 40× compound titration in 100% DMSO solvent is added, followed by adding 15 μL of BTK enzyme mix in 1× kinase buffer (with a final concentration of 0.25 nM). The assay is incubated for 30 minutes before being stopped with 28 μL of a 50 mM EDTA solution. Aliquots (5 μL) of the kinase reaction are transferred to a low volume white 384 well plate (Coming 3674), and 5 μL of a 2× detection buffer (Invitrogen PV3574, with 4 nM Tb-PY20 antibody, Invitrogen PV3552) is added. The plate is covered and incubated for 45 minutes at room temperature. Time resolved fluorescence (TRF) on Molecular Devices M5 (332 nm excitation; 488 nm emission; 518 nm fluorescein emission) is measured. IC50 values are calculated using a four parameter fit with 100% enzyme activity determined from the DMSO control and 0% activity from the EDTA control.

T1 sequence (Q06187 whole entry): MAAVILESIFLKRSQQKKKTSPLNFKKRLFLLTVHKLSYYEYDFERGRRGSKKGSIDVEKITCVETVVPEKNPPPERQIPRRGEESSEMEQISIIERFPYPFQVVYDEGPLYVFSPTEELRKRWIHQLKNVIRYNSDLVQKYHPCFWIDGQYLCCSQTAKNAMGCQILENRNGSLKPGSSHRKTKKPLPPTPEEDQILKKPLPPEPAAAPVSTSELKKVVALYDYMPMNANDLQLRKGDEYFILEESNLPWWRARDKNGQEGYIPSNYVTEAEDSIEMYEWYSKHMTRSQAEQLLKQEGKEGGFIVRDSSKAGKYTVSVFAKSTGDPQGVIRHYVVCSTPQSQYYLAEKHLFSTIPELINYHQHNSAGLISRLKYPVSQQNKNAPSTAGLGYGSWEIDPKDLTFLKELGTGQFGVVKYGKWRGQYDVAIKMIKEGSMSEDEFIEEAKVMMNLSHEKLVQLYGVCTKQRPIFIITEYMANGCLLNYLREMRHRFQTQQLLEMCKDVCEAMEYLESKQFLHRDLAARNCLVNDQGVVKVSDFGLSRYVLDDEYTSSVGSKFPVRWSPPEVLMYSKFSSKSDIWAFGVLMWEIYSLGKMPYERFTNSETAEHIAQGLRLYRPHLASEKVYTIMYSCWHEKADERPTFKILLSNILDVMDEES

Compound	IC50
Cc1cc(-c2ccncc2N2CCN(C(=O)/C=C/CN(C)C)CC2)ccc1CN1CCc2c(cnn2C(C)(C)C)C1=O [Example 72, (E)-1-(tert-butyl)-5-(4-(3-(4-(4-(dimethylamino)but-2-enoyl)piperazin-1-yl)pyridin-4-yl)-2-methylbenzyl)-1,5,6,7-tetrahydro-4H-pyrazolo[4,3-c]pyridin-4-one]	≤ 1 nM
C=CC(=O)N(C)[C@@H]1CCCN(c2cncc(C#N)c2-c2ccc(CNC(=O)c3cn(C(C)(C)C)nn3)c(C)c2F)C1 [Example 47, 1-(tert-butyl)-N-(4-(3-cyano-5-((R)-3-(N-methylacrylamido)piperidin-1-yl)pyridin-4-yl)-3-fluoro-2-methylbenzyl)-1H-1,2,3-triazole-4-carboxamide]	≤ 1 nM
C=CC(=O)N1CCN(c2cncnc2-c2ccc(CNC(=O)c3cn(C(C)(C)C)nn3)c(C)c2)CC1 [Example 50, N-(4-(5-(4-acryloylpiperazin-1-yl)pyrimidin-4-yl)-2-methylbenzyl)-1-(tert-butyl)-1H-1,2,3-triazole-4-carboxamide]	≤ 1 nM
Cc1cc(-c2c(C#N)cncc2N2CCN(C(=O)/C=C/CN(C)C)CC2)ccc1CNC(=O)c1cc(C(C)(C)C)on1 [Example 70, (E)-5-(tert-butyl)-N-(4-(3-cyano-5-(4-(4-(dimethylamino)but-2-enoyl)piperazin-1-yl)pyridin-4-yl)-2-methylbenzyl)isoxazole-3-carboxamide]	1 to 10 nM
C#CC(=O)N1CCN(c2cnccc2-c2ccc(CNC(=O)c3noc(C(C)(C)C)n3)c(C)c2)CC1 [Example 60, 5-(tert-butyl)-N-(2-methyl-4-(3-(4-propioloylpiperazin-1-yl)pyridin-4-yl)benzyl)-1,2,4-oxadiazole-3-carboxamide]	≤ 1 nM
C=CC(=O)N1CC2CC1CN(c1cnccc1-c1ccc(CNC(=O)c3cn(C(C)(C)C)nn3)c(C)c1)C2 (stereo not drawn) [Example 54, 1-tert-butyl-N-[[2-methyl-4-[3-(6-prop-2-enoyl-3,6-diazabicyclo[3.2.1]octan-3-yl)-4-pyridyl]phenyl]methyl]triazole-4-carboxamide]	> 10 nM
C=CC(=O)N1CCN(c2cncnc2-c2ccc(CNC(=O)c3noc(C(C)(C)C)n3)c(C)c2)CC1 [Example 80, N-(4-(5-(4-acryloylpiperazin-1-yl)pyrimidin-4-yl)-2-methylbenzyl)-5-(tert-butyl)-1,2,4-oxadiazole-3-carboxamide]	≤ 1 nM
C=CC(=O)N1CCC[C@H](c2cnccc2-c2ccc(CNC(=O)c3noc(C4(C)CC4)n3)c(C)c2)C1 (single isomer, unassigned) [Example 27]	> 10 nM
C=CC(=O)N1CC2(CCN(c3cnccc3-c3ccc(CNC(=O)c4noc(C(C)(C)C)n4)c(C)c3)C2)C1 [Example 7, N-(4-(3-(2-acryloyl-2,6-diazaspiro[3.4]octan-6-yl)pyridin-4-yl)-2-methylbenzyl)-5-(tert-butyl)-1,2,4-oxadiazole-3-carboxamide]	> 10 nM
C=CC(=O)N1CCN(c2cnccc2-c2ccc(CNC(=O)c3noc(C4(C(F)F)CC4)n3)c(C)c2)CC1 [Example 99, N-(4-(3-(4-acryloylpiperazin-1-yl)pyridin-4-yl)-2-methylbenzyl)-5-(1-(difluoromethyl)cyclopropyl)-1,2,4-oxadiazole-3-carboxamide]	≤ 1 nM
C=CC(=O)N1CCC[C@@H](c2cnccc2-c2ccc(CNC(=O)c3nc(C4(C)CC4)no3)c(C)c2)C1 (single isomer, unassigned) [Example 31]	> 10 nM
Cc1cc(-c2ccncc2N2CCN(C(=O)C3=CCC3)CC2)ccc1CNC(=O)c1noc(C(C)(C)C)n1 [Example 57, 5-(tert-butyl)-N-(4-(3-(4-(cyclobut-1-ene-1-carbonyl)piperazin-1-yl)pyridin-4-yl)-2-methylbenzyl)-1,2,4-oxadiazole-3-carboxamide]	≤ 1 nM
Cc1cc(-c2ccncc2N2CCN(C(=O)/C=C/CN3CCN(C)CC3)CC2)ccc1CNC(=O)c1noc(C(C)(C)C)n1 [Example 65, (E)-5-(tert-butyl)-N-(2-methyl-4-(3-(4-(4-(4-methylpiperazin-1-yl)but-2-enoyl)piperazin-1-yl)pyridin-4-yl)benzyl)-1,2,4-oxadiazole-3-carboxamide]	1 to 10 nM
Cc1cc(-c2ccncc2N2CCN(C(=O)/C=C/CN(C)C)C(C)C2)ccc1CNC(=O)c1noc(C(C)(C)C)n1 (stereo not drawn) [Example 74, (E)-5-(tert-butyl)-N-(4-(3-(4-(4-(dimethylamino)but-2-enoyl)-3-methylpiperazin-1-yl)pyridin-4-yl)-2-methylbenzyl)-1,2,4-oxadiazole-3-carboxamide]	≤ 1 nM

The remaining lines, values ahead:

IC50	Compound
> 10 nM	C=CC(=O)N(C)C1CCCN(c2cnccc2-c2ccc(CNC(=O)c3cn(C(C)(C)C)nn3)c(C)c2)C1=O (stereo not drawn) [Example 10, 1-(tert-butyl)-N-(2-methyl-4-(3-(3-(N-methylacrylamido)-2-oxopiperidin-1-yl)pyridin-4-yl)benzyl)-1H-1,2,3-triazole-4-carboxamide]
≤ 1 nM	C=CC(=O)N(C)C1CCCN(c2cnccc2-c2ccc(CNC(=O)c3ncc(C(C)(C)C)o3)c(C)c2)C1 (stereo not drawn) [Example 45, 5-(tert-butyl)-N-(2-methyl-4-(3-(3-(N-methylacrylamido)piperidin-1-yl)pyridin-4-yl)benzyl)oxazole-2-carboxamide]
1 to 10 nM	Cc1cc(-c2ccncc2N2CCN(C(=O)/C=C/CN3CC(F)C3)CC2)ccc1CNC(=O)c1noc(C(C)(C)C)n1 [Example 64, (E)-5-(tert-butyl)-N-(4-(3-(4-(4-(3-fluoroazetidin-1-yl)but-2-enoyl)piperazin-1-yl)pyridin-4-yl)-2-methylbenzyl)-1,2,4-oxadiazole-3-carboxamide]
≤ 1 nM	C=CC(=O)N1CCN(c2cncnc2-c2ccc(CNC(=O)c3nnn(C(C)(C)C)n3)c(C)c2)CC1 [Example 79, N-(4-(5-(4-acryloylpiperazin-1-yl)pyrimidin-4-yl)-2-methylbenzyl)-2-(tert-butyl)-2H-tetrazole-5-carboxamide]
> 10 nM	C=CC(=O)N1CC2CC1CN(c1cnccc1-c1ccc(CNC(=O)c3cc(C(C)(C)C)on3)c(C)c1)C2 (stereo not drawn) [Example 55, 5-tert-butyl-N-[[2-methyl-4-[3-(6-prop-2-enoyl-3,6-diazabicyclo[3.2.1]octan-3-yl)-4-pyridyl]phenyl]methyl]isoxazole-3-carboxamide]
1 to 10 nM	Cc1cc(-c2ccncc2N2CCN(C(=O)/C=C/CN3CCC3)CC2)ccc1CNC(=O)c1noc(C(C)(C)C)n1 [Example 66, (E)-N-(4-(3-(4-(4-(azetidin-1-yl)but-2-enoyl)piperazin-1-yl)pyridin-4-yl)-2-methylbenzyl)-5-(tert-butyl)-1,2,4-oxadiazole-3-carboxamide]
1 to 10 nM	CN(C)C/C=C/C(=O)N1CCN(c2cnccc2-c2ccc(CNC(=O)c3noc(C4(C)CC4)n3)c(C(F)F)c2)CC1 [Example 88, (E)-N-(2-(difluoromethyl)-4-(3-(4-(4-(dimethylamino)but-2-enoyl)piperazin-1-yl)pyridin-4-yl)benzyl)-5-(1-methylcyclopropyl)-1,2,4-oxadiazole-3-carboxamide]
> 10 nM	C=CC(=O)N(C)C1CCN(c2cnccc2-c2ccc(CNC(=O)c3cn(C(C)(C)C)nn3)c(C)c2)C1=O (stereo not drawn) [Example 11, 1-(tert-butyl)-N-(2-methyl-4-(3-(3-(N-methylacrylamido)-2-oxopyrrolidin-1-yl)pyridin-4-yl)benzyl)-1H-1,2,3-triazole-4-carboxamide]
≤ 1 nM	Cc1cc(-c2ccncc2N2CCN(C(=O)/C=C/C(F)(F)F)CC2)ccc1CNC(=O)c1noc(C(C)(C)C)n1 [Example 58, (E)-5-(tert-butyl)-N-(2-methyl-4-(3-(4-(4,4,4-trifluorobut-2-enoyl)piperazin-1-yl)pyridin-4-yl)benzyl)-1,2,4-oxadiazole-3-carboxamide]
1 to 10 nM	Cc1cc(-c2ccncc2N2CCN(C(=O)/C=C/CN3CCOCC3)CC2)ccc1CNC(=O)c1noc(C(C)(C)C)n1 [Example 67, (E)-5-(tert-butyl)-N-(2-methyl-4-(3-(4-(4-morpholinobut-2-enoyl)piperazin-1-yl)pyridin-4-yl)benzyl)-1,2,4-oxadiazole-3-carboxamide]
1 to 10 nM	C=CC(=O)N(C)CC1CCCN(c2cnccc2-c2ccc(CNC(=O)c3noc(C(C)(C)C)n3)c(C)c2)C1 (stereo not drawn) [Example 21, 5-(tert-butyl)-N-(2-methyl-4-(3-(3-((N-methylacrylamido)methyl)piperidin-1-yl)pyridin-4-yl)benzyl)-1,2,4-oxadiazole-3-carboxamide]
1 to 10 nM	C=CC(=O)N1CCN(c2cnccc2-c2ccc(CNC(=O)c3ccc(C(F)F)nc3)c(C)c2)CC1 [Example 97, N-(4-(3-(4-acryloylpiperazin-1-yl)pyridin-4-yl)-2-methylbenzyl)-6-(difluoromethyl)nicotinamide]
1 to 10 nM	C=C(F)C(=O)N1CCN(c2cncnc2-c2ccc(CNC(=O)c3noc(C(C)(C)C)n3)c(C)c2)CC1 [Example 81, 5-(tert-butyl)-N-(4-(5-(4-(2-fluoroacryloyl)piperazin-1-yl)pyrimidin-4-yl)-2-methylbenzyl)-1,2,4-oxadiazole-3-carboxamide]
